For 23 molecules, EC50 results are on record in BindingDB's records for doi:10.1021/jm9903242 (Agouron Pharmaceuticals, 2000).

Structures are written as SMILES. A value given as a limit tells only on which side of the number the result lay.

The nature of this experiment: Antiviral activity using H1HeLa cells (ATCC) infected with HRV-14.

A word on the EC50: it is the concentration giving half of the maximal effect. `NC(=O)c1ccc2c(c1)C=CC2=O` [1-Oxo-1H-indene-5-carboxylic acid amide]: the concentration for a half-maximal effect (EC50) was greater than 20 µM.
Then `CCOC(=O)/C=C/c1cc(O)cc(C(N)=O)c1` [3-(3-Carbamoyl-5-hydroxy-phenyl)-acrylic acid ethyl ester], with greater than 100 µM.
In turn, `CCOC(=O)/C=C/c1cc(CO)cc(C(N)=O)c1` [3-(3-Carbamoyl-5-hydroxymethyl-phenyl)-acrylic acid ethyl ester] had a concentration giving a half-maximal response (EC50) greater than 100 µM.
With `CCOC(=O)/C(C#N)=C/c1cccc(C(N)=O)c1` [3-(3-Carbamoyl-phenyl)-2-cyano-acrylic acid ethyl ester] the figure was greater than 100 µM.
Then `NC(=O)c1cccc(/C=C/C(=O)OCCO)c1` [3-(3-Carbamoyl-phenyl)-acrylic acid 2-hydroxy-ethyl ester], with 20 µM.
On to `NC(=O)c1cccc(/C=C/C(=O)OCc2ccccc2)c1` [3-(3-Carbamoyl-phenyl)-acrylic acid benzyl ester], for which the EC50 stood at 5.6 µM. Compared with the last molecule, the EC50 is about 3.6-fold lower.
In the case of `CCOC(=O)/C=C/c1cccc(C(N)=O)c1` [3-(3-Carbamoyl-phenyl)-acrylic acid ethyl ester], it took 15.9 µM to reach a half-maximal effect (EC50).
Molecule `COC(=O)/C=C/c1cccc(C(N)=O)c1` [3-(3-Carbamoyl-phenyl)-acrylic acid methyl ester] came in with an EC50 of 150 µM. This EC50 lies about 9.4-fold higher than the previous one.
Then `NC(=O)c1cccc(/C=C/C(=O)OCCc2ccccc2)c1` [3-(3-Carbamoyl-phenyl)-acrylic acid phenethyl ester], with 100 µM; and `NC(=O)c1cccc(/C=C/C(=O)c2ccco2)c1` [3-(3-Furan-2-yl-3-oxo-propenyl)-benzamide], with greater than 71 µM.
Then `NC(=O)c1cccc(/C=C/C(=O)c2ccccc2)c1` [3-(3-Oxo-3-phenyl-propenyl)-benzamide], with 28 µM; and `NC(=O)c1cccc(/C=C/C(=O)c2ccccn2)c1` [3-(3-Oxo-3-pyridin-2-yl-propenyl)-benzamide], with 50 µM; and `CC(=O)C=Cc1cccc(C(N)=O)c1` [3-(3-Oxo-but-1-enyl)-benzamide], with 32 µM.
Then `CCOC(=O)/C=C/c1ccc(OCc2ccccc2)c(C(N)=O)c1` [3-(4-Benzyloxy-3-carbamoyl-phenyl)-acrylic acid ethyl ester], with greater than 320 µM; and `CCOC(=O)/C=C/c1cc(C(N)=O)ccc1C` [3-(5-Carbamoyl-2-methyl-phenyl)-acrylic acid ethyl ester], with greater than 100 µM; and `CN(C)c1ccc(C(=O)/C=C/c2cccc(C(N)=O)c2)cc1` [3-[3-(4-Dimethylamino-phenyl)-3-oxo-propenyl]-benzamide], with greater than 15 µM.
In turn, `COc1ccc(C(=O)/C=C/c2cccc(C(N)=O)c2)cc1` [3-[3-(4-Methoxy-phenyl)-3-oxo-propenyl]-benzamide] showed an EC50 greater than 22 µM.
With `CCOC(=O)/C=C/c1cc(CN2CCN(c3ccccn3)CC2)cc(C(N)=O)c1` [3-[3-Carbamoyl-5-(4-pyridin-2-yl-piperazin-1-ylmethyl)-phenyl]-acrylic acid ethyl ester] the figure was 2.5 µM.
With `CCOC(=O)/C=C/c1cc(CN2CCN(c3ncccn3)CC2)cc(C(N)=O)c1` [3-[3-Carbamoyl-5-(4-pyrimidin-2-yl-piperazin-1-ylmethyl)-phenyl]-acrylic acid ethyl ester] the figure was 1 µM.
Then `CCOC(=O)/C=C/c1cc(CSc2nnc(-c3ccccn3)o2)cc(C(N)=O)c1` [3-[3-Carbamoyl-5-(5-pyridin-2-yl-[1,3,4]oxadiazol-2-ylsulfanylmethyl)-phenyl]-acrylic acid ethyl ester], with 5.6 µM.
Turning to `CCOC(=O)/C=C/c1cc(CN2CCN(c3ccccc3C#N)CC2)cc(C(N)=O)c1` [3-{3-Carbamoyl-5-[4-(2-cyano-phenyl)-piperazin-1-ylmethyl]-phenyl}-acrylic acid ethyl ester], the midpoint of the response, the EC50, lay at 0.6 µM.
Then `CCOC(=O)/C=C/c1cc(CN(CC)Cc2ccncc2)cc(C(N)=O)c1` [3-{3-Carbamoyl-5-[(ethyl-pyridin-4-ylmethyl-amino)-methyl]-phenyl}-acrylic acid ethyl ester], with 5.8 µM; and `CCOC(=O)/C=C/c1cc(CN2CCN(C(=O)OCC)CC2)cc(C(N)=O)c1` [4-[3-Carbamoyl-5-(2-ethoxycarbonyl-vinyl)-benzyl]-piperazine-1-carboxylic acid ethyl ester], with 1.8 µM.
